Results on 2 compounds are retold here after US8802675B2, “Neuroprotective multifunctional compounds and pharmaceutical compositions comprising them” (priority 2009, dated 2014).

“And” between values parts separate entries of the source, which are not always exact repeats. Equal values may be shown once. Read-outs that look alike come from different tables or passages of the source.

One assay concerns the target T1, rat brain MAO-A (Rattus norvegicus, UniProt P21396).
T1 construct: from tissue; host or cells: rat brain homogenate
T1 sequence (P21396 1-526): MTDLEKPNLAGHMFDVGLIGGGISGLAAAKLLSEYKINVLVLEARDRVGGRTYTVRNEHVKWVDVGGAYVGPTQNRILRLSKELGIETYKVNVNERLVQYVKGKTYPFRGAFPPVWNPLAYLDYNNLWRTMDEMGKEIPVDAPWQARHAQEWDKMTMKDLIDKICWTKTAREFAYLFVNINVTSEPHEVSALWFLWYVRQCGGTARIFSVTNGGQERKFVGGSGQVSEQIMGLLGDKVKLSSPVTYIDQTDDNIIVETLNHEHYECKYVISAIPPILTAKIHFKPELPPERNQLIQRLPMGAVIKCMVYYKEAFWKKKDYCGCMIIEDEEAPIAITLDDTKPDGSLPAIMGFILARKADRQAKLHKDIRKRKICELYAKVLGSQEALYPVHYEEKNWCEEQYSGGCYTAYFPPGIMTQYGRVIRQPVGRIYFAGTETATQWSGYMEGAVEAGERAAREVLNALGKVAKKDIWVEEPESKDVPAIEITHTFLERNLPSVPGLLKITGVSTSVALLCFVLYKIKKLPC
Put plainly: biochemical. The following applies: IC50 MAO-A, rat brain homogenate in vitro; mean SEM, n=3 in triplicates. The procedure: (§1) Rats were decapitated and the brains were quickly taken into a pre-weighted ice-cold sucrose buffer (10 mM Tris-HCl buffer, pH 7.4, containing 0.32 M sucrose), and their weights were measured. The brains were homogenized at 0-4° C. in 0.32 M sucrose (one part tissue to 20 parts sucrose) in a Teflon glass homogenizer. The resultant homogenates were used to determine MAO activity. Protein concentration was determined with Bradford reagent at 595 nm, using bovine serum albumin as a standard.
(§2) The activity of MAO-A and MAO-B were determined by the adapted method of Tipton & Youdim (Tipton et al. 1983). Briefly, the multifunctional compound tested was added to a suitable dilution of the enzyme preparation (70 μg MAO-B and 150 μg MAO-A) in 0.05 M phosphate buffer (pH 7.4). The mixture was incubated together with 0.05 μM 1-deprenyl, a specific inhibitor of MAO-B (for determination of MAO-A activity in the presence of the test compound) or 0.05 μM clorgyline a specific inhibitor of MAO-A (for determination of MAO-B activity). […] The reaction was stopped with 2M ice-cold citric acid, and the radioactive metabolites (5-hydroxytryptaldehyde and phenylacetaldehyde) were extracted by addition of 2 ml of ethylacetate/toluene (1:1 vol/vol). The radioactivity contained in the organic phase was determined by liquid-scintillation counting in cpm units.
(§3) MAO-A and MAO-B activities were determined in rat brain homogenate in vitro following incubation with varying concentrations of the test compounds.
(§4) The results are the mean SEM, n=3 in triplicates.

For another assay, the target named is T2, rat brain MAO-B (Rattus norvegicus, UniProt P19643).
T2 construct: from tissue; host or cells: rat brain homogenate
T2 sequence (P19643 1-520): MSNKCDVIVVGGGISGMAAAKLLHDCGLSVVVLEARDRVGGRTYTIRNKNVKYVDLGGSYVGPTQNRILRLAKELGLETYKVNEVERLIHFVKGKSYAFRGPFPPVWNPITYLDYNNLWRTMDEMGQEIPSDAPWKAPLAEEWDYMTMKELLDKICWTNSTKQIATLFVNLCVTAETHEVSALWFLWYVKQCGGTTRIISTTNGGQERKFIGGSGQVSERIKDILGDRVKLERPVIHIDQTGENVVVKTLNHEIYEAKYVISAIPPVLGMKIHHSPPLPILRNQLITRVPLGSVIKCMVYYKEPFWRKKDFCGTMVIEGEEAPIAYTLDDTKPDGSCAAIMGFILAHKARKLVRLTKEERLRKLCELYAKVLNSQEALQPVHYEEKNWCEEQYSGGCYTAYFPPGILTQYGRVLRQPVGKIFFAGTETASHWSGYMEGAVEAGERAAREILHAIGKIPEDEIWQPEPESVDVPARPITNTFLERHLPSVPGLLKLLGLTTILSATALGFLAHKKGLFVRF
Put plainly: biochemical. The following applies: IC50 MAO-B, rat brain homogenate in vitro; mean SEM, n=3 in triplicates. The procedure:
as §1, §2, §3, §4

In assay [1] the target is T3, butyrylcholinesterase (BuChE) (Rattus norvegicus, UniProt Q9JKC1).
T3 construct: total cholinesterase (ChE) and butyrylcholinesterase (BuChE) activities in rat brain homogenates; from tissue; host or cells: brain homogenate (10% w/v) of adult Wistar rats
T3 sequence (Q9JKC1 24-597): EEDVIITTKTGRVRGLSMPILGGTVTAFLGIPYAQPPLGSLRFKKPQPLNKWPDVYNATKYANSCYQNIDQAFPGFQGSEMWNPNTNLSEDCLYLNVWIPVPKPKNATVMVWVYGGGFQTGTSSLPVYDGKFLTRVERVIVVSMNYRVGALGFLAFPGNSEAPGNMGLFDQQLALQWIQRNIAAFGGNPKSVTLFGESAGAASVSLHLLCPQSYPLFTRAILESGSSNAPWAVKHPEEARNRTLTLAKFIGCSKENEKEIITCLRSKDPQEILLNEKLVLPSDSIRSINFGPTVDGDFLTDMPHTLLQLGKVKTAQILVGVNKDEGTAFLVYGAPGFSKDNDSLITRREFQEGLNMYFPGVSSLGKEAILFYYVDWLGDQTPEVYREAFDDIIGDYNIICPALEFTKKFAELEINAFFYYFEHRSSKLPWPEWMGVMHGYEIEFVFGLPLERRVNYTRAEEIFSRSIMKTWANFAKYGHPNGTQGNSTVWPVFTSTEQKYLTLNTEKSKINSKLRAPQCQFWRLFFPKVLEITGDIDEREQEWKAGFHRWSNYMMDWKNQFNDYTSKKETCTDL
Put plainly: Butyrylcholinesterase inhibition in rat brain homogenates (Ellman). It counts as biochemical. The settings on record: mean SEM, n=3 in triplicates. On the procedure: (§5) Cholinesterase activity was determined in rat brain homogenate following incubation with varying concentrations of the multifunctional pro-chelators of the invention (also referred to herein as “carbamates”).
(§6) Ellman's colorimetric method was adapted for determination of total cholinesterase (ChE) and butyrylcholinesterase (BuChE) activities in rat brain homogenates. Brain tissue from adult Wistar rats was homogenized at 2% w/v (or 10% w/v, for BuChE) in 0.1 M sodium phosphate buffer, pH 7.4, with added NaCl 58.5 g/l and Triton X-100 0.05% v/v. Aliquots of homogenate (20 μl) were incubated with the test compounds for designed time intervals in phosphate buffer pH 7.4, before addition of 5,5′-dithiobis(2-nitrobenzoic) acid and either 1 mM acetylthiocholine iodide or 10 mM butyrylthiocholine iodide (Sigma, St. Louis, Mo.). The reaction was run at 37° C. in a final volume of […] in 96-well microplates and was followed at 412 nm for 5 min with a plate reader. In every experiment, cholinesterase-independent (nonspecific) substrate hydrolysis was determined by including one experimental group treated with tacrine 30 μM. Appropriate tissue and reagent blanks were also included. Reaction velocities were determined in three or four replicates per condition; these were averaged and expressed as percent activity relative to control (solvent), after subtracting the rate of nonspecific hydrolysis.
(§7) The results are the mean SEM, n=3 in triplicates. ND—not determined.
In general terms: DTNB colorimetry detects thiols as they appear.

Assay [2] has as its target T4, rat brain cholinesterase (total ChE) (Rattus norvegicus, UniProt P37136).
T4 construct: rows headed: Ki (dissociation constant for EI); other: rat brain total ChE; mean of 3-4 experiments; k+2 (carbamylation rate constant); other: from ki; rate of carba
T4 sequence (P37136 32-614): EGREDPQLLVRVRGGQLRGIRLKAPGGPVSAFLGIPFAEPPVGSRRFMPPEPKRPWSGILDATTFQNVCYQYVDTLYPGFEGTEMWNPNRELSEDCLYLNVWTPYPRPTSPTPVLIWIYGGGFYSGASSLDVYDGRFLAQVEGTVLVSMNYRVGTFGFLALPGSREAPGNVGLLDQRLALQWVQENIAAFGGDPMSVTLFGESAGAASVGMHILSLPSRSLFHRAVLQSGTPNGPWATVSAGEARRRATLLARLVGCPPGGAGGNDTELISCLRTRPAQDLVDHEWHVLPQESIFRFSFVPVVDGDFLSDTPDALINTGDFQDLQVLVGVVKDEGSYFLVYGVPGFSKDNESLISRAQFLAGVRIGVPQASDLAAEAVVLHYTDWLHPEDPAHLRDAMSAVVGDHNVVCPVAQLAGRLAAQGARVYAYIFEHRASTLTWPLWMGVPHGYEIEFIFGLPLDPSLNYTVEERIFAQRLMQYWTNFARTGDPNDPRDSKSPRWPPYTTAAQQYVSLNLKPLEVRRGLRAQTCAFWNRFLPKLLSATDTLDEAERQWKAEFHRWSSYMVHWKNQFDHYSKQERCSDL
Put plainly: Kinetics of irreversible cholinesterase inhibition (Kitz-Wilson). It counts as biochemical. The procedure: To determine kinetic constants of irreversible inhibition, cholinesterase from rat brain homogenates was incubated with the multifunctional compounds of the invention for designed time intervals in phosphate buffer pH 7.4.
The residual cholinesterase activity was immediately measured with the Ellman's colorimetric method after addition of 5,5′-dithiobis(2-nitrobenzoic) acid and 1 mM acetylthiocholine iodide. The inhibition kinetics were assessed according to Kitz-Wilson equation:
[formula] wherein: E represents the enzyme; I represents the intact carbamate (inhibitor); EI is the initial reversible enzyme complex; E* is the carbamylated enzyme; Ki represents the dissociation constant for EI; k+2 is the carbamylation rate constant and k+3 is the decarbamylation rate constant; kapp is the pseudo-first-order inhibition rate constant; ki, the second-order rate inhibition constant, is approximated by k+2/Ki. Under experimental condition [I]>>[E0].
According to equation (2), the logarithm of the ratio of the residual cholinesterase activity (E) and the initial cholinesterase activity (E0) is plotted against the time of incubation. The slopes of the lines representing kapp were determined by linear regression.
The slopes of the lines represent the pseudo-first-order inhibition rate constant (kapp) determined from linear regression analysis. […] The carbamylation rate constant (k+2) was obtained from the y-intercept, and the dissociation constant ([…] was obtained from the slope of the line multiplied by k+2 as described in Materials and Methods.
From these lines, the values of kapp were calculated based on Equation (2) of the Kitz-Wilson equations (see Material and Methods). […] The carbamylation rate constant k+2 is a measure of inactivation of ChE.

For assay [3], the target named is T5, total cholinesterase (ChE) (Rattus norvegicus, UniProt P37136).
T5 sequence (P37136 32-614): T4 sequence (P37136 32-614)
Description: Total cholinesterase inhibition in rat brain homogenates (Ellman). It counts as biochemical. The settings on record: read-out: percent inhibition Total ChE. On the procedure: as §5, §6, §7

Assay [4] deals with rat brain cholinesterase (total ChE). The following applies: cited from earlier work.

For the compound `C#CCN(C)Cc1ccc(OC(=O)N2CCCCC2)c2ncccc12` [Compound 6, 5-((methyl(propargyl)amino)methyl)quinolin-8-yl piperidine-1-carboxylate], the IC50 (commonly the concentration that inhibits the measured activity by half) at rat brain MAO-A was 4.7 to 20 nM and 4.7 nM; against rat brain MAO-B, 1860 nM; in assay [1], 45700 ± 5940 nM. The “potency in inhibiting ChE relative to rivastigmine” value in assay [2] (from ki) is “as potent”. Moreover, in assay [2] (pH 7.4, read-out: k+2 (carbamylation rate constant)), the kinact is 0.00117 s⁻¹. Also, the kinact/KI in assay [2] (pH 7.4, read-out: ki (second-order rate inhibition constant, approximated by k+2/Ki)) is 77.3 M⁻¹ s⁻¹.

Take `CCN(C)C(=O)Oc1cccc([C@H](C)N(C)C)c1` [Rivastigmine, (S)-N-ethyl-N-methyl-3-[1-(dimethylamino)ethyl]-phenyl carbamate]: in assay [3], the inhibition (in general, the relative decrease from the control value, in per cent) at 1 µM is 62%. Further, the “k+2 (carbamylation rate constant)” value is 0.25^b min^−1 in assay [4] (Data from ref.) and 0.25 min⁻¹ in assay [4] (Data from ref., listed as rivastigmine). Moreover, in assay [4] (Data from ref.), the “ki (second-order rate inhibition constant)” value is on record as 4.54 × 10^3b M^−1 min^−1. Also, in assay [4] (rivastigmine, data from ref., read-out: Ki, affinity to total ChE), the Ki (as a rule, a dissociation constant, usually derived from enzyme kinetics or from competition with a known ligand) is 55000 nM.
